In US20220351806A1, “Biomarker Panels for Guiding Dysregulated Host Response Therapy” (Endpoint Health Inc., priority 2019, published 2022):

Test system: burn-induced SIRS patients
Test: Burn-Induced SIRS trial survival analysis, hydrocortisone vs placebo, by patient subtype classifier
Assay type: in vivo, human
Set-up: lower mortality in the hydrocortisone group when compared to the placebo group / Mortality reduction / Mortality rate: concentration or dose not given beside the values
Conditions: for Alive / Dead / Mortality rate / Survival rate: Hydro arm; for Alive / Dead / Mortality rate / Survival rate / Mortality Reduction Group / Mortality reduction: day 28; for Mortality Reduction Group: Hydro vs Placebo
Description: The test expression data from each trial were normalized by the platform normalization matrix described above^13 so that the test data were more consistent with the training data. The classifiers (e.g., the Full Model, the SS Model, the S Model, and the P Model) were then applied to the normalized data such that the patients were classified into A, B, and C subtypes. […] Therefore, each sample in the target samples was normalized independently with the normalization matrix of the sample array platform.
Survival and mortality rates were calculated at day 28 because survival and mortality labels at other time points were not available. […] Binomial and Chi-squared with continuity correction tests were used to test for the significance of these differences.
The chi-squared p-value was calculated with continuity correction when computed for 2-by-2 tables.

[1] = Full Model, Total (all subtypes)

SMILES: C[C@]12CCC(=O)C=C1CC[C@@H]1[C@@H]2[C@@H](O)C[C@@]2(C)[C@H]1CC[C@]2(O)C(=O)CO [Hydro, hydrocortisone]
- Alive [1]: 9
- Dead [1]: 6
- Mortality rate [1]: 40.0%
- Survival rate [1]: 60.0%
- Mortality Reduction Group [1]: Placebo
- Mortality reduction (Full Model, Total (all subtypes), reduction group Placebo): 66.7%
- Alive (Full Model, subtype A): 2
- Dead (Full Model, subtype A): 1
- Survival rate (Full Model, subtype A): 66.7%
- Mortality Reduction Group (Full Model, subtype A): Placebo
- Mortality reduction (Full Model, subtype A, reduction group Placebo): 100.0%
- Alive (Full Model, subtype B): 6
- Dead (Full Model, subtype B): 1
- Mortality rate (Full Model, subtype B): 14.3%
- Survival rate (Full Model, subtype B): 85.7%
- Mortality Reduction Group (Full Model, subtype B): Hydro
- Mortality reduction (Full Model, subtype B, reduction group Hydro): 64.3%
- Alive (Full Model, subtype C): 1
- Dead (Full Model, subtype C): 4
- Mortality rate (Full Model, subtype C): 80.0%
- Survival rate (Full Model, subtype C): 20.0%
- Mortality Reduction Group (Full Model, subtype C): Placebo
- Mortality reduction (Full Model, subtype C, reduction group Placebo): 100.0%
- Alive (Full Model, subtypes CA): 3
- Dead (Full Model, subtypes CA): 5
- Mortality rate (Full Model, subtypes CA): 62.5%
- Survival rate (Full Model, subtypes CA): 37.5%
- Mortality Reduction Group (Full Model, subtypes CA): Placebo
- Mortality reduction (Full Model, subtypes CA, reduction group Placebo): 100.0%
- Alive (P Model, Total (all subtypes)): 9
- Dead (P Model, Total (all subtypes)): 6
- Mortality rate (P Model, Total (all subtypes)): 40.0%
- Survival rate (P Model, Total (all subtypes)): 60.0%
- Mortality Reduction Group (P Model, Total (all subtypes)): Placebo
- Mortality reduction (P Model, Total (all subtypes), reduction group Placebo): 66.7%
- Alive (P Model, subtype A): 4
- Dead (P Model, subtype A): 1
- Mortality rate (P Model, subtype A): 20.0%
- Survival rate (P Model, subtype A): 80.0%
- Mortality Reduction Group (P Model, subtype A): Placebo
- Mortality reduction (P Model, subtype A, reduction group Placebo): 100.0%
- Alive (P Model, subtype B): 5
- Dead (P Model, subtype B): 1
- Survival rate (P Model, subtype B): 83.3%
- Mortality Reduction Group (P Model, subtype B): Hydro
- Mortality reduction (P Model, subtype B, reduction group Hydro): 50.0%
- Alive (P Model, subtype C): 0
- Dead (P Model, subtype C): 4
- Mortality rate (P Model, subtype C): 100.0%
- Survival rate (P Model, subtype C): 0.0%
- Mortality Reduction Group (P Model, subtype C): Placebo
- Mortality reduction (P Model, subtype C, reduction group Placebo): 100.0%
- Alive (P Model, subtypes CA): 4
- Dead (P Model, subtypes CA): 5
- Mortality rate (P Model, subtypes CA): 55.6%
- Survival rate (P Model, subtypes CA): 44.4%
- Mortality Reduction Group (P Model, subtypes CA): Placebo
- Mortality reduction (P Model, subtypes CA, reduction group Placebo): 100.0%
- Alive (S Model, Total (all subtypes)): 9
- Dead (S Model, Total (all subtypes)): 6
- Mortality rate (S Model, Total (all subtypes)): 40.0%
- Survival rate (S Model, Total (all subtypes)): 60.0%
- Mortality Reduction Group (S Model, Total (all subtypes)): Placebo
- Mortality reduction (S Model, Total (all subtypes), reduction group Placebo): 66.7%
- Alive (S Model, subtype A): 3
- Dead (S Model, subtype A): 2
- Mortality rate (S Model, subtype A): 40.0%
- Survival rate (S Model, subtype A): 60.0%
- Mortality Reduction Group (S Model, subtype A): Placebo
- Mortality reduction (S Model, subtype A, reduction group Placebo): 58.3%
- Alive (S Model, subtype B): 6
- Dead (S Model, subtype B): 1
- Mortality rate (S Model, subtype B): 14.3%
- Survival rate (S Model, subtype B): 85.7%
- Mortality Reduction Group (S Model, subtype B): Hydro
- Mortality reduction (S Model, subtype B, reduction group Hydro): 28.6%
- Alive (S Model, subtype C): 0
- Dead (S Model, subtype C): 3
- Mortality rate (S Model, subtype C): 100.0%
- Survival rate (S Model, subtype C): 0.0%
- Mortality Reduction Group (S Model, subtype C): Placebo
- Mortality reduction (S Model, subtype C, reduction group Placebo): 100.0%
- Alive (S Model, subtypes CA): 3
- Dead (S Model, subtypes CA): 5
- Mortality rate (S Model, subtypes CA): 62.5%
- Survival rate (S Model, subtypes CA): 37.5%
- Mortality Reduction Group (S Model, subtypes CA): Placebo
- Mortality reduction (S Model, subtypes CA, reduction group Placebo): 84.0%
- lower mortality in the placebo group when compared to the hydrocortisone therapy group (SIRS patients, 28-day, C subtype, Full Model): 100%
- lower mortality in the placebo group when compared to the hydrocortisone therapy group (SIRS patients, 28-day, C subtype, P Model): 100%
- lower mortality in the placebo group when compared to the hydrocortisone therapy group (SIRS patients, 28-day, C subtype, S Model): 100%
- lower mortality in the placebo group when compared to the hydrocortisone therapy group (SIRS patients, 28-day, C subtype, SS Model): 65%
- lower mortality in the placebo group when compared to the hydrocortisone therapy group (SIRS patients, 28-day, subtype A, Full, S, and P Models): 100%
- lower mortality in the hydrocortisone group when compared to the placebo group (SIRS patients, 28-day, subtype B, S Model): 28.6%
- Alive (SS Model, Total (all subtypes)): 9
- Dead (SS Model, Total (all subtypes)): 6
- Mortality rate (SS Model, Total (all subtypes)): 40.0%
- Survival rate (SS Model, Total (all subtypes)): 60.0%
- Mortality Reduction Group (SS Model, Total (all subtypes)): Placebo
- Mortality reduction (SS Model, Total (all subtypes), reduction group Placebo): 66.7%
- Alive (SS Model, subtype A): 4
- Dead (SS Model, subtype A): 2
- Survival rate (SS Model, subtype A): 66.7%
- Mortality Reduction Group (SS Model, subtype A): Placebo
- Mortality reduction (SS Model, subtype A, reduction group Placebo): 40.0%
- Alive (SS Model, subtype B): 2
- Dead (SS Model, subtype B): 0
- Mortality rate (SS Model, subtype B): 0.0%
- Survival rate (SS Model, subtype B): 100.0%
- Mortality Reduction Group (SS Model, subtype B): Placebo
- Alive (SS Model, subtype C): 3
- Dead (SS Model, subtype C): 4
- Mortality rate (SS Model, subtype C): 57.1%
- Survival rate (SS Model, subtype C): 42.9%
- Mortality Reduction Group (SS Model, subtype C): Placebo
- Mortality reduction (SS Model, subtype C, reduction group Placebo): 65.0%
- Alive (SS Model, subtypes CA): 7
- Dead (SS Model, subtypes CA): 6
- Mortality rate (SS Model, subtypes CA): 46.2%
- Survival rate (SS Model, subtypes CA): 53.8%
- Mortality Reduction Group (SS Model, subtypes CA): Placebo
- Mortality reduction (SS Model, subtypes CA, reduction group Placebo): 56.7%
